Test results published in US11851431B2, “Tricyclic Janus kinase 1 inhibitors, and compositions and methods thereof” (LYNK PHARMACEUTICALS CO. LTD., priority 2018, dated 2023).

Legend:
TYK2 = biological target: T1, TYK2 (Homo sapiens, UniProt P29597); assay: JAK biochemical microfluidic assay (Caliper EZ Reader), TYK2; conditions: 1 mM ATP; head prints (2.5 nM)
T1 construct: purchased Carna Biosciences
Method: (§1) JAK activity was determined in the reaction buffer 50 mM HEPES, 0.01% Brij35, 10 mM MgCl2, 2 mM DTT by a microfluidic assay. The phosphorylation of a FAM labeled peptide substrate was monitored in the Caliper EZ Reader II (Perkin Elmer). The assay condition for each batch of enzyme (Carna Biosciences) was optimized to obtain 10% conversion rate of peptide substrate.
(§2) The test compounds were dissolved in DMSO to a stock concentration of 10 mM. Three-fold serially diluted compounds with top concentration of 5 μM were pre-incubated with JAK1, JAK2 or TYK2 for 10 min at ambient temperature. The final DMSO concentration of assay mixture was 1%. […] The reaction was stopped by adding 50 mM EDTA.
(§3) The percent inhibition was calculated by the following formula. % Inhibition=(Conversionmax−Conversionsample)/(Conversionmax−Conversionmin)*100 Conversionmax means the conversion rate in the positive well without addition of compound • […] means the conversion rate in the well without addition of enzyme • Conversionsample means the conversion rate of test compounds
(§4) The dose-response (percent inhibition) curve was plotted and IC50 values were determined by GraphPad software.

JAK1 = biological target: T2, JAK1 (Homo sapiens, UniProt P23458); assay: JAK biochemical microfluidic assay (Caliper EZ Reader), JAK1; conditions: 1 mM ATP; head prints (5 nM)
T2 construct: purchased Carna Biosciences
Method: as §1, §2, §3, §4

JAK2 = biological target: T3, JAK2 (Homo sapiens, UniProt O60674); assay: JAK biochemical microfluidic assay (Caliper EZ Reader), JAK2; conditions: 1 mM ATP; head prints (0.25 nM)
T3 construct: purchased Carna Biosciences
Method: as §1, §2, §3, §4

BaF3-TEL-JAK2 = assay: Anti-proliferative assay, BaF3-TEL-JAK2 cells; assay type: cell-based; conditions: 72 h, Cell-Titer Glo
Method: (§5) Dimerization domain of Tel protein fused with JAK kinase domain was permanently transduced into BaF3 cells, whose proliferation is dependent on JAK activity in the absence of IL-3 induction. These engineered BaF3-Tel-JAK cells were used to monitor JAK inhibitory activities of the compounds in the cellular.
(§6) BaF3-Tel-JAK cells were cultured in RPMI-1640 (Corning) containing 10% fetal bovine serum. Cells were seeded at 2000/well of white flat bottom 96-well plates. The well containing medium only was used as background control. After 24h growth, cells were treated with compounds. The test compounds were dissolved in DMSO to a stock concentration of 10 mM. 3-fold serially diluted compounds for 9 concentrations with top concentration of 10 μM was added into the each well. The final DMSO concentration was 0.2%. The cells continued to grow at 37° C. in 5% CO2 for 72 h after compound treatment. The viability was measured by cellular ATP determination using the Cell-Titer Glo luciferase reagent (Promega). The Luminescence value was recorded by a multi-label reader Envision (PerkinElmer). Values were transformed to percent inhibition using the following formula. % Inhibition=(Readoutmax−Readoutsample)/(Readoutmax−Readoutmin)*100
(§7) The well without compound but with equivalent DMSO was defined as Readout max
(§8) The well with only medium and equivalent DMSO was defined as Readout min
(§9) The dose-response (percent inhibition) curve was plotted and GI50 values (the concentration that causes 50% growth inhibition) were determined by GraphPad software.

BaF3-TEL-JAK1 = assay: Anti-proliferative assay, BaF3-TEL-JAK1 cells; assay type: cell-based; conditions: 72 h, Cell-Titer Glo
Method: as §5, §6, §7, §8, §9

[1] = Rat pharmacokinetic study; assay type: in vivo, Sprague-Dawley rats
Method: Pharmacokinetic profile of test articles were evaluated in fasted Sprague-Dawley rats. Typically, Rats were dosed with 1 mg/kg and 2 mg/kg by intravenous injection and oral gavage, respectively. After dosing, blood samples were collected at each time point. For IV injection group, time points were set at 5, 15, 30 min, and then 1, 2, 4, 8 and 24 hours after dosing. For oral gavage group, time points were set at 15, 30 min, and then 1, 2, 4, 8, and 24 hours. Blood was collected into appropriately labeled tubes containing K2EDTA as the anticoagulant. Plasma was obtained within 1 hours of blood collection by centrifugation at 8000×g and 4° C. for 6 minutes, and then stored at −20° C. until analyzed by LC/MS/MS for quantification.
PK parameter values, including, but not necessarily limited to, the maximum plasma concentrations (Cmax), the time to reach the maximum concentrations (Tmax), and the area under the plasma concentration vs. time curve (AUC) from time zero to 24-hour (AUC0-24h) were determined using WinNonlin program.

[2] = Human liver microsome stability study; assay type: in vitro ADME; conditions: liver microsomes, pH 7.4, 0.5 mg/mL microsomal protein, 1 μM test article; for microsomal CLint at 1 μM: read-out: HLM Clint; for half-life at 1 μM: read-out: HLM T½
Method: Commercially available human liver microsome (vendor: Corning) were used for study the Phase I stability of test articles.
Microsomes were pre-incubated with test compound or control compounds for 10 min at 37° C. in 100 mM potassium phosphate buffer, pH 7.4, 3.3 mM MgCl2. The reaction was initiated by addition of 80 μL of the NADPH regenerating system to 320 μL of each incubation mixture per time point. The final incubation condition was composed of 0.5 mg/mL microsomal protein, 1 μM test article/positive control, 1.3 mM NADP, 3.3 mM glucose-6-phosphate, and 0.6 U/mL glucose-6-phosphate dehydrogenase. The 0-minute samples were prepared by addition of an 80 μL aliquot of each incubation mixture to 400 μL quench reagent to precipitate proteins. And then a 20 μL aliquot of the NADPH regenerating system was added. At 10, 30, and 90 minutes, the reaction will be stopped by the addition of cold acetonitrile solution containing tolbutamide and propanolol served as internal standard. The samples taken at all time points were centrifuged at 4000×g for 15 minutes. 80 μL of supernatant are taken into 96-well assay plates pre-added with 160 μL ultrapure water, and then analyzed by LC/MS/MS (Shimadzu LC30AD & API4000/API5000)).
Concentrations of test articles, control compounds in the samples were determined by using LC/MS/MS) method. Plotting of the chromatograms and peak area integrations are carried out by Analyst (AB Sciex).
In the determination of the in vitro elimination constant, ke, of the control compounds, the analyte/internal standard peak area ratios will be converted to percentage remaining (% Remaining) with the following equation:
The CLint of microsomes was calculated using the formula: CLint (mic)=0.693/T1/2/mg microsome protein per mL.

[3] = Sprague-Dawley, plasma, 1 mg/kg, Rat iv @1 mpk, 0.2 mg/mL in 4% DMSO + 15% Solutol HS 15 + 81% Saline

T3 sequence (O60674 whole entry): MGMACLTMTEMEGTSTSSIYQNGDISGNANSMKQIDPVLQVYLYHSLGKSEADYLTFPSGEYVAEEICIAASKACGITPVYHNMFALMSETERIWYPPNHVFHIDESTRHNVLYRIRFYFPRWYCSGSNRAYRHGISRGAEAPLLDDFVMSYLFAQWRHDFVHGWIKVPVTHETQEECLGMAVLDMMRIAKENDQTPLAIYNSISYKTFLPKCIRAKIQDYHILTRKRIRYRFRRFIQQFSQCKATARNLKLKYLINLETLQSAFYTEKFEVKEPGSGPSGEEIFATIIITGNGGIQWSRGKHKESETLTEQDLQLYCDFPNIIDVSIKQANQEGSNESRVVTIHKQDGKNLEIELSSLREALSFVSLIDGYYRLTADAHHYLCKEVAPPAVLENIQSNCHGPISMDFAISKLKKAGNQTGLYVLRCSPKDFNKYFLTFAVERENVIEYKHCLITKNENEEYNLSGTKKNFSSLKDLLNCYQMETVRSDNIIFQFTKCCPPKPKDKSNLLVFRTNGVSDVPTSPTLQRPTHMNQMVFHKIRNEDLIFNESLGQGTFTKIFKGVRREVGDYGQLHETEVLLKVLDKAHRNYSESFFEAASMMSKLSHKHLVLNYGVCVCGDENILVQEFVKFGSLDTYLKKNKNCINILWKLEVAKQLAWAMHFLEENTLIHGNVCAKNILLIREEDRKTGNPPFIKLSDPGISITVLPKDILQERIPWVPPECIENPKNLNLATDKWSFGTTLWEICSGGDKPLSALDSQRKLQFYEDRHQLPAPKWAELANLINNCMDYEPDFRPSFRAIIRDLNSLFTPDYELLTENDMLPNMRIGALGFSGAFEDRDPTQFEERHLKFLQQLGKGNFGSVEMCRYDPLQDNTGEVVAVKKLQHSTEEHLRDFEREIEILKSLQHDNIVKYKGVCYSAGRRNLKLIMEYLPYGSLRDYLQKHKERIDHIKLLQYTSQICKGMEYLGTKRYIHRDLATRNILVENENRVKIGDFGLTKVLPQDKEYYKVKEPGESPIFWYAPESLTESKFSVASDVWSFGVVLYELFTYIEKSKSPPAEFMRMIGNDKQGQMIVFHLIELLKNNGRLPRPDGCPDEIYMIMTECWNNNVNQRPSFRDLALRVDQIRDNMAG
T2 sequence (P23458 whole entry): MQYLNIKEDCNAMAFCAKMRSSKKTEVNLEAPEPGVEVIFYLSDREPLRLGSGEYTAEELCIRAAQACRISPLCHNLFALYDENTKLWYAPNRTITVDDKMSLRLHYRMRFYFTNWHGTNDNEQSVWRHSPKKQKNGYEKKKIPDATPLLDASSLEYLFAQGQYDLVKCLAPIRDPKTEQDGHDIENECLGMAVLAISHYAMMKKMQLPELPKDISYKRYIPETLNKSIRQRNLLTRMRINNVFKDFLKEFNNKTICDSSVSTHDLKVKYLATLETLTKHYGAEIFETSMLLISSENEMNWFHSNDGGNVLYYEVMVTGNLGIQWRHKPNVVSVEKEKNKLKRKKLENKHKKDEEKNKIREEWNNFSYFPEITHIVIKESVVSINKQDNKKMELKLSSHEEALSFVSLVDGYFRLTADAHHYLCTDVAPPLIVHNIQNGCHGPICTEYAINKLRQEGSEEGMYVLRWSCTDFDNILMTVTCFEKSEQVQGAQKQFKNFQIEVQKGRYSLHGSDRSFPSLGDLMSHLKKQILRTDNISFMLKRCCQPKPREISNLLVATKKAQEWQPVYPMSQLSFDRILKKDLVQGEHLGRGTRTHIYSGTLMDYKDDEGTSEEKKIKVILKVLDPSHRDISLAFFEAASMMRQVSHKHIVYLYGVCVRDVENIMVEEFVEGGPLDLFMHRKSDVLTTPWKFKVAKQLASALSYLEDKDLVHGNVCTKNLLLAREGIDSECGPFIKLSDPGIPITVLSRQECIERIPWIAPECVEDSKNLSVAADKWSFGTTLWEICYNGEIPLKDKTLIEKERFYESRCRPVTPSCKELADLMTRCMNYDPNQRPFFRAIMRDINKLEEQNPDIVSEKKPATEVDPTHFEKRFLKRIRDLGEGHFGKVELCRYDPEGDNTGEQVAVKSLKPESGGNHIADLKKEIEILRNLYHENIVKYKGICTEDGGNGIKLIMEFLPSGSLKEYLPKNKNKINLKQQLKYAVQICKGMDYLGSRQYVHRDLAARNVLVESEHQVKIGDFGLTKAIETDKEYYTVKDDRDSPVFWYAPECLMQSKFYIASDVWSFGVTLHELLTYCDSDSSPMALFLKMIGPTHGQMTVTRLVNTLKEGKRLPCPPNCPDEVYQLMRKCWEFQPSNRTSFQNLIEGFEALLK
T1 sequence (P29597 whole entry): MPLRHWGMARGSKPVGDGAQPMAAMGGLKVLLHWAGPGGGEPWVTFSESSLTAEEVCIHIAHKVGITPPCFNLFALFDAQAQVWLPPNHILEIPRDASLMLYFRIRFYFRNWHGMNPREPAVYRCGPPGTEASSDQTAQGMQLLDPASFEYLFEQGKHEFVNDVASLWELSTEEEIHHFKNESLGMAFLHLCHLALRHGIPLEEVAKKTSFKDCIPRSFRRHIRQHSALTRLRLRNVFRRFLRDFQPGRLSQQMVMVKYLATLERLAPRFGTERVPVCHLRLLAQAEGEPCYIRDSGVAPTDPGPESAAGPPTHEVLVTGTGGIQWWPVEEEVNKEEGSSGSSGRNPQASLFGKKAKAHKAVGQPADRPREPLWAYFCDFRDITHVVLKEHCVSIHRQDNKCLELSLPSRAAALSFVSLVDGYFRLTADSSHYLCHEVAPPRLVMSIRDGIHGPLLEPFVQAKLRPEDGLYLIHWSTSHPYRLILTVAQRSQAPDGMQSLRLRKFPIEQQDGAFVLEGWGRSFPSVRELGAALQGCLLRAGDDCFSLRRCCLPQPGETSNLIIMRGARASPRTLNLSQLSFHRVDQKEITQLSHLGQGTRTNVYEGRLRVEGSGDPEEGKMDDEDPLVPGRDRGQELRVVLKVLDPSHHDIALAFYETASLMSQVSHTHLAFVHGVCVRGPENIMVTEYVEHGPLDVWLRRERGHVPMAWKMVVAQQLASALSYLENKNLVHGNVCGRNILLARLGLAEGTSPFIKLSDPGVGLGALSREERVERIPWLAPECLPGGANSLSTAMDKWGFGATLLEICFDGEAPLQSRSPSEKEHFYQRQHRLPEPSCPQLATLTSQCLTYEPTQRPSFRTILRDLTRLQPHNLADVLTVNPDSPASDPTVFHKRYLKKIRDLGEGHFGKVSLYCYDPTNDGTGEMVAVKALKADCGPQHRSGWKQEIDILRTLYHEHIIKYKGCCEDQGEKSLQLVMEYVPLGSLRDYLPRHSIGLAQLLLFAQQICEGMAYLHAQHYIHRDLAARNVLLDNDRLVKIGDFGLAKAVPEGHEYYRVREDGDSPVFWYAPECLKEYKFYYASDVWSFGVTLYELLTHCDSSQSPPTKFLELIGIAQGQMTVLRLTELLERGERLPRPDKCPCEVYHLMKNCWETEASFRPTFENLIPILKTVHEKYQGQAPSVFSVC

| SMILES | IC50 (TYK2) | IC50 (JAK1) | IC50 (JAK2) | GI50 (BaF3-TEL-JAK2) | GI50 (BaF3-TEL-JAK1) | AUC [1, 3] | Vd [1, 3] | clearance [1, 3] | half-life ([1]; Sprague-Dawley, plasma, 1 mg/kg, Rat iv @1 mpk, 0.2 mg/mL in 4% DMSO + 15% Solutol HS 15 + 81% Saline, read-out: t½ (converted)) | Pharmacokinetic profile in rats ([1]; conclusion in words) | microsomal CLint at 1 μM [2] | half-life at 1 μM [2] |
| --- | --- | --- | --- | --- | --- | --- | --- | --- | --- | --- | --- | --- |
| CC(C)(C)OC(=O)NC12CC(n3cnc4cnc5[nH]ccc5c43)(C1)C2 [Example 1i, Tert-butyl (3-(imidazo[4,5-d]pyrrolo[2,3-b]pyridin-1(6H)-yl)bicyclo[1.1.1]pentan-1-yl)carbamate] | 2.88 µM | 0.043 µM | 0.472 µM | – | – | – | – | – | – | – | – | – |
| CCCS(=O)(=O)N[C@H]1C[C@@H](n2cnc3cnc4[nH]ccc4c32)C1 [Example 2, N-(Cis-3-(imidazo[4,5-d]pyrrolo[2,3-b]pyridin-1(6H)-yl)cyclobutyl)propane-1-sulfonamide] | 2.85 µM | 0.0692 µM | 1.09 µM | 2.3 µM | 0.352 µM | – | – | – | – | – | – | – |
| CCCS(=O)(=O)N[C@H]1C[C@H](n2cnc3cnc4[nH]ccc4c32)C1 [Example 3, N-(trans-3-(imidazo[4,5-d]pyrrolo[2,3-b]pyridin-1(6H)-yl)cyclobutyl)propane-1-sulfonamide] | 3.66 µM | 0.19 µM | 1.54 µM | 2.54 µM | 1.09 µM | – | – | – | – | – | – | – |
| N#CC1CN(S(=O)(=O)NC23CC(n4cnc5cnc6[nH]ccc6c54)(C2)C3)C1 [Example 4, 3-Cyano-N-(3-(imidazo[4,5-d]pyrrolo[2,3-b]pyridin-1(6H)-yl)bicyclo[1.1.1]pentan-1-yl)azetidine-1-sulfonamide] | 0.111 µM | 0.0032 µM | 0.0832 µM | – | – | 402 ng·h/mL | 0.93 L/kg | 41.9 mL/min/kg | 0.26 h | good Pharmacokinetic profile | 2.11 µL/min/mg | 10.9 h |
| CC(C)CS(=O)(=O)NC12CC(n3cnc4cnc5[nH]ccc5c43)(C1)C2 [Example 5, N-(3-(imidazo[4,5-d]pyrrolo[2,3-b]pyridin-1(6H)-yl)bicyclo[1.1.1]pentan-1-yl)-2-methylpropane-1-sulfonamide] | 0.111 µM | 0.00553 µM | 0.145 µM | 0.38 µM | 0.01 µM | – | – | – | – | – | – | – |
| COCCS(=O)(=O)NC12CC(n3cnc4cnc5[nH]ccc5c43)(C1)C2 [Example 6, N-(3-(imidazo[4,5-d]pyrrolo[2,3-b]pyridin-1(6H)-yl)bicyclo[1.1.1]pentan-1-yl)-2-methoxyethanesulfonamide] | 1.05 µM | 0.0244 µM | 0.597 µM | – | – | – | – | – | – | – | – | – |
| O=S(=O)(NC12CC(n3cnc4cnc5[nH]ccc5c43)(C1)C2)C1CC1 [Example 7, N-(3-(imidazo[4,5-d]pyrrolo[2,3-b]pyridin-1(6H)-yl)bicyclo[1.1.1]pentan-1-yl)cyclopropanesulfonamide] | 0.574 µM | 0.0453 µM | 0.47 µM | – | – | – | – | – | – | – | – | – |
| N#CCCC(=O)NC12CC(n3cnc4cnc5[nH]ccc5c43)(C1)C2 [Example 14, 3-Cyano-N-(3-(imidazo[4,5-d]pyrrolo[2,3-b]pyridin-1(6H)-yl)bicyclo[1.1.1]pentan-1-yl)propanamide] | – | 0.00806 µM | 0.0731 µM | – | – | – | – | – | – | – | 0.77 µL/min/mg | 29.8 h |

The remaining lines, values ahead:

| IC50 (TYK2) | IC50 (JAK1) | IC50 (JAK2) | GI50 (BaF3-TEL-JAK2) | GI50 (BaF3-TEL-JAK1) | AUC [1, 3] | Vd [1, 3] | clearance [1, 3] | half-life ([1]; Sprague-Dawley, plasma, 1 mg/kg, Rat iv @1 mpk, 0.2 mg/mL in 4% DMSO + 15% Solutol HS 15 + 81% Saline, read-out: t½ (converted)) | Pharmacokinetic profile in rats ([1]; conclusion in words) | microsomal CLint at 1 μM [2] | half-life at 1 μM [2] | SMILES |
| --- | --- | --- | --- | --- | --- | --- | --- | --- | --- | --- | --- | --- |
| – | 0.0187 µM | 0.167 µM | 0.291 µM | 0.12 µM | – | – | – | – | – | – | – | O=C(CCC(F)(F)F)NC12CC(n3cnc4cnc5[nH]ccc5c43)(C1)C2 [Example 18, 4,4,4-Trifluoro-N-(3-(imidazo[4,5-d]pyrrolo[2,3-b]pyridin-1(6H)-yl)bicyclo[1.1.1]pentan-1-yl)butanamide] |
| 0.2 µM | 0.0083 µM | 0.334 µM | – | – | – | – | – | – | – | – | – | N#CC1CCN(S(=O)(=O)NC23CC(n4cnc5cnc6[nH]ccc6c54)(C2)C3)C1 (stereo not drawn) [Example 20, 3-Cyano-N-(3-(imidazo[4,5-d]pyrrolo[2,3-b]pyridin-1(6H)-yl)bicyclo[1.1.1]pentan-1-yl)pyrrolidine-1-sulfonamide] |
| 0.0335 µM | 0.0034 µM | 0.0508 µM | 0.148 µM | 0.0416 µM | – | – | – | – | – | – | – | O=S(=O)(NC12CC(n3cnc4cnc5[nH]ccc5c43)(C1)C2)N1CC(F)(F)C1 [Example 23, 3,3-difluoro-N-(3-(imidazo[4,5-d]pyrrolo[2,3-b]pyridin-1(6H)-yl)bicyclo[1.1.1]pentan-1-yl)azetidine-1-sulfonamide] |
| 0.413 µM | 0.0067 µM | 0.259 µM | 0.286 µM | 0.051 µM | – | – | – | – | – | – | – | O=S(=O)(NC12CC(n3cnc4cnc5[nH]ccc5c43)(C1)C2)c1ccc(Cl)cc1 [Example 28, 4-Chloro-N-(3-(imidazo[4,5-d]pyrrolo[2,3-b]pyridin-1(6H)-yl)bicyclo[1.1.1]pentan-1-yl)benzenesulfonamide] |
| 0.17 µM | 0.0048 µM | 0.129 µM | 0.198 µM | 0.0278 µM | – | – | – | – | – | – | – | CCCCS(=O)(=O)NC12CC(n3cnc4cnc5[nH]ccc5c43)(C1)C2 [Example 31, N-(3-(imidazo[4,5-d]pyrrolo[2,3-b]pyridin-1(6H)-yl)bicyclo[1.1.1]pentan-1-yl)butane-1-sulfonamide] |
| – | 0.0085 µM | 0.0946 µM | 1 µM | 0.0996 µM | – | – | – | – | – | – | – | O=C(NCC(F)(F)F)NC12CC(n3cnc4cnc5[nH]ccc5c43)(C1)C2 [Example 41, 1-(3-(Imidazo[4,5-d]pyrrolo[2,3-b]pyridin-1(6H)-yl)bicyclo[1.1.1]pentan-1-yl)-3-(2,2,2-trifluoroethyl)urea] |
| 0.108 µM | 0.0022 µM | 0.0783 µM | 0.133 µM | 0.0142 µM | – | – | – | – | – | – | – | O=S(=O)(CC1CC(F)(F)C1)NC12CC(n3cnc4cnc5[nH]ccc5c43)(C1)C2 [Example 46, 1-(3,3-Difluorocyclobutyl)-N-(3-(imidazo[4,5-d]pyrrolo[2,3-b]pyridin-1(6H)-yl)bicyclo[1.1.1]pentan-1-yl)methanesulfonamide] |
